Source: patent US12128173B2, “Dry powder drug delivery system and methods” (MannKind Corporation, priority 2012, dated 2024)

Experiments:
[1] = Post prandial glucose excursions during meal challenges; assay type: in vivo, healthy volunteers; conditions: DPI 2 vs MEDTONE, doses not titrated
[2] = Powder flowability: Hausner ratio, compressibility (Carr's) index, angle of repose, critical orifice; assay type: physicochemical
Source text: FDKP microparticles either unmodified or containing a drug, for example insulin, constitute highly cohesive powders.

[3] = VMGD and container emptying by laser diffraction, DPI 2 vs MEDTONE (Example 6); assay type: physicochemical; conditions: SSA 55, 4 kPa
Source text: Typically, the geometric size of the emitted powder includes a volumetric distribution characterized by the median particle size, VMGD.

[4] = FDKP bioavailability versus intravenous bolus of radiolabeled FDKP; conditions: model analysis
[5] = FDKP pharmacokinetics after inhalation, DPI 1 vs MEDTONE (Example 8); assay type: in vivo, healthy volunteers
Source text: The MEDTONE® inhaler system was used for comparison. […] Powder used were crystalline powder formulations.
During an inhalation maneuver, the patient was instructed to maintain a nominal pressure differential of 4-6 kPa combined with a short inhalation of 3-4 seconds or a long inhalation of 6-7 seconds. To generate a “hard” inhalation, the subject provided a nominal inhalation time of about 6.5 seconds and a peak pressure of 7 kPa. Conversely, to generate an “easy” inhalation, the subject provided a nominal inhalation time of about 6.5 seconds and a peak pressure of 5 kPa. Coupled with the inhalation monitoring apparatus, gravimetric assessment of the powder mass discharged from the cartridge was performed. This enabled a linkage between inhalation maneuver during dosing, cartridge discharge mass and pharmacokinetic profile determinations for each subject.
The study was an open-label, crossover, 2-part study in healthy volunteers.
Part 2 was carried out as a 2-part, 2-way crossover study for evaluating the effect of flow rate (15 versus 30 LPM) and inhalation time (3 versus 6 seconds). For each parameter tested (i.e., flow rate, and inhalation time), ten subjects were crossed over for each parameter with 20 subjects total for all of the parameters. Pharmacokinetics of FDPK was assessed with each treatment from blood samples taken from the subjects.

[6] = Solubility of FDKP by pH; assay type: physicochemical
[7] = In vitro powder emptying and VMGD, DPI 2 vs MTDS (Example 7); assay type: physicochemical; conditions: 4 kPa
Source text: In vitro powder performance for these systems was compared for various parameter of inhaler performance. For DPI 2 a single discharge per cartridge was used as compared to two discharges per cartridge in the MEDTONE® system.
Particle sizing by laser diffraction and quantification of emitted mass as described above were used in these experiments. A laser diffraction instrument (Sympatec HELOS) was adapted with a novel pressurized inhaler chamber to facilitate analysis of powder plumes. MTDS cartridges were discharged twice per determination versus once with DPI 2.

[8] = O-series vs U-series inhaler: discharge and particle size of crystalline and amorphous powders (Example 14); assay type: physicochemical; conditions: fill 25 mg, 4 kPa; for X84 avg: in µm (unit assumed)
Protocol: These experiments were conducted to test various inhaler designs in trying to improve percent dose discharge or increase device emptying to acceptable ranges for certain types of powders used. […] In these experiments, therefore, two types of dry powder inhalers were designed and built. An O-series (FIGS. 49 and 50) dry powder inhaler wherein the inhaler comprises rigid conduits which generate a tumbling, recirculating action of an airflow through the powder container during an inhalation in an O-shape prior to the airflow exiting the container. A second inhaler or U-series was also designed and built for comparison wherein the dry powder inhaler comprised a rigid air conduit through the container substantially U-shaped and configured with a deflector so that in use an airflow entering the container redirects the airflow within the container void or space in a U-shape/semilunar path or downwardly prior to exiting the container. Powders tested were either crystalline or amorphous.
The rigid flow conduits as illustrated in FIGS. 49 and 51 can be adapted to any type of dry powder inhaler for delivering different types of powder compositions. In these experiments, crystalline and amorphous powders were tested with the two types of air flow conduits designed into the same type of inhalers, a single use disposable. […] Inhaler performance was tested and evaluated from measurements using various parameters, such as pressure differential, powder content prior to and after testing of various powders via a simulated single inhalation. The particle size distribution of the discharged powder plume for each inhaler used was also measured as described in Example 7 above.

Question: Which “post prandial glucose excursions” value [1] does the source give for insulin here?
Answer: generally comparable glucose excursions

Question: With `O=C(O)/C=C/C(=O)NCCCCC1NC(=O)C(CCCCNC(=O)/C=C/C(=O)O)NC1=O` (stereo not drawn) [FDKP, 3,6-bis(N-fumaryl-4-aminobutyl)-2,5-diketopiperazine] as the compound, how does the angle of repose [2] read?
Answer: 40 °

Question: And the VMGD ([3]; DPI 2, 56% trans)?
Answer: 6.800 micron

Question: And the VMGD ([3]; MEDTONE, 56% trans)?
Answer: 21.200 micron

Question: What about the “% of the FDKP delivered into the systemic circulation” value ([4]; DPI 2, single inhalation, 6.7 mg total fill FDKP-insulin (FDKP about 6 mg)) of the same compound?
Answer: 64%

Question: What about the “% of the FDKP delivered into the systemic circulation” value ([4]; MEDTONE, two inhalations, FDKP-insulin formulation) of the same compound?
Answer: 46%

Question: What about the “better delivery of FDKP into the systemic circulation than MEDTONE” value ([5]; DPI 1 vs MEDTONE) of the same compound?
Answer: about 30%

Question: What about the “AVG mean AUC fdkp per emitted fdkp mass” value ([5]; Part 1, DPI 1, 10 mg, nominal time and inhalation effort) of the same compound?
Answer: 3495 ng*min/mL*mg fdkp

Question: What about the “AVG mean AUC fdkp per emitted fdkp mass” value ([5]; Part 1, MT (MEDTONE), 10 mg, nominal time and inhalation effort) of the same compound?
Answer: 1934 ng*min/mL*mg fdkp

Question: And the “AVG mean AUC fdkp per emitted fdkp mass” value ([5]; Part 2, DPI 1, 10 mg, long inhalation time)?
Answer: 3289 ng*min/mL*mg fdkp

Question: And the “AVG mean AUC fdkp per emitted fdkp mass” value ([5]; Part 2, DPI 1, 10 mg, short inhalation time)?
Answer: 3310 ng*min/mL*mg fdkp

Question: And the solubility ([6]; at neutral or basic pH)?
Answer: readily soluble

Question: And the solubility ([6]; in acid)?
Answer: low solubility

Question: What about the “Ave. VMGD” value ([7]; DPI 2, fill 10 mg, single discharge) of the same compound?
Answer: 6.84 μm

Question: What about the “Ave. VMGD” value ([7]; MEDTONE (MTDS), fill 10 mg FDKP, two discharges) of the same compound?
Answer: 21.21 μm

Question: And the X16 avg ([8]; Sample 1, O-series)?
Answer: 1.9 µm

Question: What about the X50 avg ([8]; Sample 1, O-series) of the same compound?
Answer: 6.86 μm

Question: And the X84 avg ([8]; Sample 1, O-series)?
Answer: 21.55

Question: What about the X16 avg ([8]; Sample 2, U-series) of the same compound?
Answer: 2.76 µm

Question: And the X50 avg ([8]; Sample 2, U-series)?
Answer: 11.19 μm

Question: What about the X84 avg ([8]; Sample 2, U-series) of the same compound?
Answer: 36.51
